Measured values reported in patent US8952024B2, “Herbicidal pyrimidone derivatives” (E I du Pont de Nemours and Company, priority 2009, dated 2015).

Columns and labels:
Format in all cases: in vivo
[1] = system: barnyardgrass (Echinochloa crus-galli); assay: Test A pre-/postemergence plant response
Procedure, shortened: (§1)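 Visual injury rating on a 0–100 scale (0 = no effect, 100 = complete control) was made versus untreated controls after about ten days in the greenhouse. Compounds, formulated in a non-phytotoxic solvent mix containing surfactant, were sprayed preemergence onto loam/sand soil and postemergence onto one- to two-leaf plants.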

corn (Zea mays) = assay: Test A pre-/postemergence plant response
Procedure, shortened: as §1

[2] = system: giant foxtail (Setaria faberii); assay: Test A pre-/postemergence plant response
Procedure, shortened: as §1

[3] = system: large crabgrass (Digitaria sanguinalis); assay: Test A pre-/postemergence plant response
Procedure, shortened: as §1

[4] = system: morningglory (Ipomoea spp.); assay: Test A pre-/postemergence plant response
Procedure, shortened: as §1

[5] = system: pigweed (Amaranthus retroflexus); assay: Test A pre-/postemergence plant response
Procedure, shortened: as §1

[6] = system: velvetleaf (Abutilon theophrasti); assay: Test A pre-/postemergence plant response
Procedure, shortened: as §1

[7] = system: wheat (Triticum aestivum); assay: Test A pre-/postemergence plant response
Procedure, shortened: as §1

[8] = system: barnyardgrass (Echinochloa crus-galli); assay: Test B flooded paddy test; conditions: for Plant response rating, Flood, Barnyardgrass: 250 g ai/ha, flooded paddy test, visual rating on 0 to 100 scale (0 no effect, 100 complete control) after 13 to 15 days; for Plant response rating, Barnyardgrass: Flood (flooded paddy test), 13 to 15 days
Procedure, shortened: (§2)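 Ratings are visual, 0–100 (100 = complete control), taken versus untreated controls 13 to 15 days after treatment in the greenhouse. Compound went straight into paddy water held 3 cm above soil, applied to 2-leaf-stage plants of four species.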

[9] = system: ducksalad (Heteranthera limosa); assay: Test B flooded paddy test; conditions: for Plant response rating, Flood, Ducksalad: 250 g ai/ha, flooded paddy test, visual rating on 0 to 100 scale (0 no effect, 100 complete control) after 13 to 15 days; for Plant response rating, Ducksalad: Flood (flooded paddy test), 13 to 15 days
Procedure, shortened: as §2

rice (Oryza sativa) = assay: Test B flooded paddy test; conditions: for Plant response rating, Flood, Rice: 250 g ai/ha, flooded paddy test, visual rating on 0 to 100 scale (0 no effect, 100 complete control) after 13 to 15 days; for Plant response rating, Rice: Flood (flooded paddy test), 13 to 15 days
Procedure, shortened: as §2

[10] = system: umbrella sedge (Cyperus difformis); assay: Test B flooded paddy test; conditions: for Plant response rating, Flood, Sedge, Umbrella: 250 g ai/ha, flooded paddy test, visual rating on 0 to 100 scale (0 no effect, 100 complete control) after 13 to 15 days; for Plant response rating, Sedge, Umbrella: Flood (flooded paddy test), 13 to 15 days
Procedure, shortened: as §2

[11] = Postemergence, 125 g ai/ha, visual injury, 0 to 100 scale (0 no effect, 100 complete control), approx. ten days
[12] = Postemergence, 500 g ai/ha, 0 to 100 scale, 0 = no effect, 100 = complete control, approx. ten days
[13] = Preemergence, 125 g ai/ha, 0 to 100 scale, 0 = no effect, 100 = complete control
[14] = Preemergence, 500 g ai/ha, visual injury, 0 to 100 scale (0 no effect, 100 complete control), approx. ten days
[15] = 31 g ai/ha, scale of 0 to 100 where 0 is no effect and 100 is complete control
[16] = 62 g ai/ha, scale 0 to 100, 0 is no effect, 100 is complete control
[17] = 125 g ai/ha, scale 0 to 100, 0 is no effect, 100 is complete control
[18] = Postemergence, 125 g ai/ha, 0 to 100 scale where 0 is no effect and 100 is complete control
[19] = Postemergence, 500 g ai/ha, visual injury, 0 to 100 scale (0 no effect, 100 complete control), approx. ten days
[20] = Preemergence, 500 g ai/ha, 0 to 100 scale, 0 = no effect, 100 = complete control

Compound: 3-cyclohexyl-5-[(2-hydroxy-6-oxo-1-cyclohexen-1-yl)carbonyl]-2-phenyl-4(3H)-pyrimidinone [Compound 128]
- Barnyardgrass plant response rating [1, 11]: 40
- Plant response rating, Barnyardgrass [1, 12]: 100
- Plant response rating, Barnyardgrass [1, 13]: 0
- Plant response rating, Barnyardgrass [1, 14]: 70
- Corn plant response rating (corn (Zea mays); [11]): 0
- Plant response rating, Corn (corn (Zea mays); [12]): 20
- Plant response rating, Corn (corn (Zea mays); [13]): 0
- Plant response rating, Corn (corn (Zea mays); [14]): 0
- Foxtail, Giant plant response rating [2, 11]: 70
- Plant response rating, Foxtail, Giant [2, 12]: 90
- Plant response rating, Foxtail, Giant [2, 13]: 10
- Plant response rating, Foxtail, Giant [2, 14]: 50
- Crabgrass, Large plant response rating [3, 11]: 50
- Plant response rating, Crabgrass, Large [3, 12]: 90
- Plant response rating, Crabgrass, Large [3, 13]: 20
- Plant response rating, Crabgrass, Large [3, 14]: 90
- Morningglory plant response rating [4, 11]: 90
- Plant response rating, Morningglory [4, 12]: 90
- Plant response rating, Morningglory [4, 13]: 0
- Plant response rating, Morningglory [4, 14]: 70
- Pigweed plant response rating [5, 11]: 90
- Plant response rating, Pigweed [5, 12]: 100
- Plant response rating, Pigweed [5, 13]: 60
- Plant response rating, Pigweed [5, 14]: 100
- Velvetleaf plant response rating [6, 11]: 100
- Plant response rating, Velvetleaf [6, 12]: 100
- Plant response rating, Velvetleaf [6, 13]: 60
- Plant response rating, Velvetleaf [6, 14]: 100
- Wheat plant response rating [7, 11]: 0
- Plant response rating, Wheat [7, 12]: 0
- Plant response rating, Wheat [7, 13]: 0
- Plant response rating, Wheat [7, 14]: 0
- Plant response rating, Flood, Barnyardgrass [8]: 25
- Plant response rating, Barnyardgrass [8, 15]: 0
- Plant response rating, Barnyardgrass [8, 16]: 0
- Plant response rating, Barnyardgrass [8, 17]: 0
- Plant response rating, Flood, Ducksalad [9]: 80
- Plant response rating, Ducksalad [9, 15]: 0
- Plant response rating, Ducksalad [9, 16]: 0
- Plant response rating, Ducksalad [9, 17]: 65
- Plant response rating, Flood, Rice (rice (Oryza sativa)): 25
- Plant response rating, Rice (rice (Oryza sativa); [15]): 0
- Plant response rating, Rice (rice (Oryza sativa); [16]): 10
- Plant response rating, Rice (rice (Oryza sativa); [17]): 20
- Plant response rating, Flood, Sedge, Umbrella [10]: 85
- Plant response rating, Sedge, Umbrella [10, 15]: 0
- Plant response rating, Sedge, Umbrella [10, 16]: 0
- Plant response rating, Sedge, Umbrella [10, 17]: 40

Compound: 5-[(2-hydroxy-6-oxo-1-cyclohexen-1-yl)carbonyl]-2,3-diphenyl-4(3H)-pyrimidinone [Compound 2]
- Barnyardgrass plant response rating [1, 11]: 20
- Plant response rating, Barnyardgrass [1, 12]: 60
- Plant response rating, Barnyardgrass [1, 13]: 0
- Plant response rating, Barnyardgrass [1, 14]: 10
- Corn plant response rating (corn (Zea mays); [11]): 0
- Plant response rating, Corn (corn (Zea mays); [12]): 0
- Plant response rating, Corn (corn (Zea mays); [13]): 0
- Plant response rating, Corn (corn (Zea mays); [14]): 0
- Foxtail, Giant plant response rating [2, 11]: 10
- Plant response rating, Foxtail, Giant [2, 12]: 40
- Plant response rating, Foxtail, Giant [2, 13]: 0
- Plant response rating, Foxtail, Giant [2, 14]: 10
- Crabgrass, Large plant response rating [3, 11]: 50
- Plant response rating, Crabgrass, Large [3, 12]: 80
- Plant response rating, Crabgrass, Large [3, 13]: 10
- Plant response rating, Crabgrass, Large [3, 14]: 70
- Morningglory plant response rating [4, 11]: 70
- Plant response rating, Morningglory [4, 12]: 90
- Plant response rating, Morningglory [4, 14]: 50
- Pigweed plant response rating [5, 11]: 70
- Plant response rating, Pigweed [5, 12]: 80
- Plant response rating, Pigweed [5, 13]: 20
- Plant response rating, Pigweed [5, 14]: 100
- Velvetleaf plant response rating [6, 11]: 100
- Plant response rating, Velvetleaf [6, 12]: 100
- Plant response rating, Velvetleaf [6, 13]: 60
- Plant response rating, Velvetleaf [6, 14]: 80
- Wheat plant response rating [7, 11]: 10
- Plant response rating, Wheat [7, 12]: 20
- Plant response rating, Wheat [7, 13]: 0
- Plant response rating, Wheat [7, 14]: 0
- Plant response rating, Flood, Barnyardgrass [8]: 0
- Plant response rating, Barnyardgrass [8, 15]: 0
- Plant response rating, Barnyardgrass [8, 16]: 0
- Plant response rating, Barnyardgrass [8, 17]: 0
- Plant response rating, Flood, Ducksalad [9]: 0
- Plant response rating, Ducksalad [9, 15]: 0
- Plant response rating, Ducksalad [9, 16]: 0
- Plant response rating, Ducksalad [9, 17]: 0
- Plant response rating, Flood, Rice (rice (Oryza sativa)): 0
- Plant response rating, Rice (rice (Oryza sativa); [15]): 0
- Plant response rating, Rice (rice (Oryza sativa); [16]): 0
- Plant response rating, Rice (rice (Oryza sativa); [17]): 0
- Plant response rating, Flood, Sedge, Umbrella [10]: 0
- Plant response rating, Sedge, Umbrella [10, 15]: 0
- Plant response rating, Sedge, Umbrella [10, 16]: 0
- Plant response rating, Sedge, Umbrella [10, 17]: 0

Compound: Cc1ccccc1-n1c(-c2cc(F)cc(F)c2)ncc(C(=O)C2=C(O)CCCC2=O)c1=O [Compound 159]
- Plant response rating, Barnyardgrass [1, 18]: 90
- Barnyardgrass plant response rating [1, 19]: 100
- Plant response rating, Barnyardgrass [1, 13]: 30
- Plant response rating, Barnyardgrass [1, 20]: 90
- Plant response rating, Corn (corn (Zea mays); [18]): 0
- Corn plant response rating (corn (Zea mays); [19]): 70
- Plant response rating, Corn (corn (Zea mays); [13]): 0
- Plant response rating, Corn (corn (Zea mays); [20]): 40
- Plant response rating, Foxtail, Giant [2, 18]: 90
- Foxtail, Giant plant response rating [2, 19]: 100
- Plant response rating, Foxtail, Giant [2, 13]: 60
- Plant response rating, Foxtail, Giant [2, 20]: 90
- Plant response rating, Crabgrass, Large [3, 18]: 90
- Crabgrass, Large plant response rating [3, 19]: 90
- Plant response rating, Crabgrass, Large [3, 13]: 80
- Plant response rating, Crabgrass, Large [3, 20]: 100
- Plant response rating, Morningglory [4, 18]: 100
- Morningglory plant response rating [4, 19]: 100
- Plant response rating, Morningglory [4, 13]: 0
- Plant response rating, Morningglory [4, 20]: 50
- Plant response rating, Pigweed [5, 18]: 100
- Pigweed plant response rating [5, 19]: 100
- Plant response rating, Pigweed [5, 13]: 100
- Plant response rating, Pigweed [5, 20]: 100
- Plant response rating, Velvetleaf [6, 18]: 100
- Velvetleaf plant response rating [6, 19]: 100
- Plant response rating, Velvetleaf [6, 13]: 70
- Plant response rating, Velvetleaf [6, 20]: 100
- Plant response rating, Wheat [7, 18]: 10
- Wheat plant response rating [7, 19]: 60
- Plant response rating, Wheat [7, 13]: 0
- Plant response rating, Wheat [7, 20]: 20

Compound: CC1(C)CC(=O)C(C(=O)c2cnc(-c3ccccc3)n(-c3ccccc3)c2=O)=C(O)C1 [Compound 225]
- Plant response rating, Barnyardgrass [1, 18]: 90
- Barnyardgrass plant response rating [1, 19]: 100
- Plant response rating, Barnyardgrass [1, 13]: 20
- Plant response rating, Barnyardgrass [1, 20]: 90
- Plant response rating, Corn (corn (Zea mays); [18]): 10
- Corn plant response rating (corn (Zea mays); [19]): 50
- Plant response rating, Corn (corn (Zea mays); [13]): 0
- Plant response rating, Corn (corn (Zea mays); [20]): 20
- Plant response rating, Foxtail, Giant [2, 18]: 70
- Foxtail, Giant plant response rating [2, 19]: 90
- Plant response rating, Foxtail, Giant [2, 13]: 40
- Plant response rating, Foxtail, Giant [2, 20]: 80
- Plant response rating, Crabgrass, Large [3, 18]: 90
- Crabgrass, Large plant response rating [3, 19]: 100
- Plant response rating, Crabgrass, Large [3, 13]: 60
- Plant response rating, Crabgrass, Large [3, 20]: 100
- Plant response rating, Morningglory [4, 18]: 100
- Morningglory plant response rating [4, 19]: 100
- Plant response rating, Morningglory [4, 13]: 30
- Plant response rating, Morningglory [4, 20]: 80
- Plant response rating, Pigweed [5, 18]: 100
- Pigweed plant response rating [5, 19]: 100
- Plant response rating, Pigweed [5, 13]: 90
- Plant response rating, Pigweed [5, 20]: 100
- Plant response rating, Velvetleaf [6, 18]: 100
- Velvetleaf plant response rating [6, 19]: 100
- Plant response rating, Velvetleaf [6, 13]: 80
- Plant response rating, Velvetleaf [6, 20]: 100
- Plant response rating, Wheat [7, 18]: 0
- Wheat plant response rating [7, 19]: 40
- Plant response rating, Wheat [7, 13]: 0
- Plant response rating, Wheat [7, 20]: 30
